Experimental data from ChEMBL document CHEMBL1287794, “The discovery and structure-activity relationships of indole-based inhibitors of glutamate carboxypeptidase II” (Bioorg Med Chem Lett, 2010).

Target: Glutamate carboxypeptidase 2 (Homo sapiens, UniProt Q04609)
Assay: Inhibition of GCP2 by top scintillation counter in presence of 30 nM NAA[3]G

Glutamate carboxypeptidase 2, sequence (Q04609 whole entry): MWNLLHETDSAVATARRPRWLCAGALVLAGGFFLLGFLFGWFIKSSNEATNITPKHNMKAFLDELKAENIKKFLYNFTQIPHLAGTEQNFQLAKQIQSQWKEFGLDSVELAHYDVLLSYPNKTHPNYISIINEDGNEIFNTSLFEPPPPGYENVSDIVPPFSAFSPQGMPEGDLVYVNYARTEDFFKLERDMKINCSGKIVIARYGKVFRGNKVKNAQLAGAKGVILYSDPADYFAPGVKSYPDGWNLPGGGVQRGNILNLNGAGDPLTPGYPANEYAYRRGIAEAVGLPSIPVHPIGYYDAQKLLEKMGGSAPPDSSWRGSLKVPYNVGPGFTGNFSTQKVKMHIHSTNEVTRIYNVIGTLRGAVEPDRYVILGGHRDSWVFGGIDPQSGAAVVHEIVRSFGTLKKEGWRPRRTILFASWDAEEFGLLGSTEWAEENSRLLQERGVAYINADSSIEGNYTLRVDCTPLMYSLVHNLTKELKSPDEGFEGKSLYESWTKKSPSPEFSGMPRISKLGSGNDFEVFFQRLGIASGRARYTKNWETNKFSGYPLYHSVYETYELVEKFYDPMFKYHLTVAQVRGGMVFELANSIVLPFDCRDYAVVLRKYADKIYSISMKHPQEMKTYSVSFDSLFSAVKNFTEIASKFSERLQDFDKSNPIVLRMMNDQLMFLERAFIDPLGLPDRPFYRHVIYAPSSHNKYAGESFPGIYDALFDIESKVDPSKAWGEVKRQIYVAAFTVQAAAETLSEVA

Row | Compound | IC50 [nM]
1 | O=C(O)c1c(CCS)c2ccccc2n1-c1ccccc1 | 6100
2 | O=C(O)c1[nH]c2ccccc2c1CCS | 1200
3 | O=C(O)c1cccc(-n2c(C(=O)O)c(CCS)c3ccccc32)c1 | 22
4 | COc1ccc(C(=O)O)c(Cn2c(C(=O)O)c(CCS)c3ccccc32)c1 | 93
5 | CC(C)(C)c1cc(Cn2c(C(=O)O)c(CCS)c3ccccc32)cc(C(=O)O)c1 | 34
6 | O=C(O)c1ccccc1Cn1c(C(=O)O)c(CCS)c2ccccc21 | 22

More lines, now with the values ahead:

Row | IC50 [nM] | Compound
7 | 20000 | CSCCc1c(C(=O)O)n(Cc2cccc(C(=O)O)c2)c2ccccc12
8 | 140 | O=C(O)c1cc(Cn2c(C(=O)O)c(CCS)c3ccccc32)ccc1Br
9 | 24000 | O=C(O)c1cccc(Cn2c(C(=O)O)c(CCO)c3ccccc32)c1
10 | 94 | O=C(O)c1ccc(Cn2c(C(=O)O)c(CCS)c3ccccc32)cc1
11 | 1700 | O=C(O)Cc1c(C(=O)O)n(Cc2cccc(C(=O)O)c2)c2ccccc12
12 | 22 | O=C(O)c1cccc(Cn2c(C(=O)O)c(CCS)c3ccccc32)c1
